Experimental data from US10526316B2, “Quinoxaline and pyridopyrazine derivatives as PI3Kβ inhibitors” (Janssen Pharmaceutica NV, priority 2015, dated 2020).
Read-outs that look alike come from different tables or passages of the source.

Tests used:
PI3Kβ = biological target: T1, PI3Kβ (Homo sapiens, UniProt P42338); assay: Enzyme binding assay (KINOMEscan, DiscoveRx); details: PIK3Cβ_h, read-out: Kd PIK3Cβ_h
T1 construct: purchased DiscoveRx Corporation, San Diego (contract service, KINOMEscan)
T1 sequence (P42338 whole entry): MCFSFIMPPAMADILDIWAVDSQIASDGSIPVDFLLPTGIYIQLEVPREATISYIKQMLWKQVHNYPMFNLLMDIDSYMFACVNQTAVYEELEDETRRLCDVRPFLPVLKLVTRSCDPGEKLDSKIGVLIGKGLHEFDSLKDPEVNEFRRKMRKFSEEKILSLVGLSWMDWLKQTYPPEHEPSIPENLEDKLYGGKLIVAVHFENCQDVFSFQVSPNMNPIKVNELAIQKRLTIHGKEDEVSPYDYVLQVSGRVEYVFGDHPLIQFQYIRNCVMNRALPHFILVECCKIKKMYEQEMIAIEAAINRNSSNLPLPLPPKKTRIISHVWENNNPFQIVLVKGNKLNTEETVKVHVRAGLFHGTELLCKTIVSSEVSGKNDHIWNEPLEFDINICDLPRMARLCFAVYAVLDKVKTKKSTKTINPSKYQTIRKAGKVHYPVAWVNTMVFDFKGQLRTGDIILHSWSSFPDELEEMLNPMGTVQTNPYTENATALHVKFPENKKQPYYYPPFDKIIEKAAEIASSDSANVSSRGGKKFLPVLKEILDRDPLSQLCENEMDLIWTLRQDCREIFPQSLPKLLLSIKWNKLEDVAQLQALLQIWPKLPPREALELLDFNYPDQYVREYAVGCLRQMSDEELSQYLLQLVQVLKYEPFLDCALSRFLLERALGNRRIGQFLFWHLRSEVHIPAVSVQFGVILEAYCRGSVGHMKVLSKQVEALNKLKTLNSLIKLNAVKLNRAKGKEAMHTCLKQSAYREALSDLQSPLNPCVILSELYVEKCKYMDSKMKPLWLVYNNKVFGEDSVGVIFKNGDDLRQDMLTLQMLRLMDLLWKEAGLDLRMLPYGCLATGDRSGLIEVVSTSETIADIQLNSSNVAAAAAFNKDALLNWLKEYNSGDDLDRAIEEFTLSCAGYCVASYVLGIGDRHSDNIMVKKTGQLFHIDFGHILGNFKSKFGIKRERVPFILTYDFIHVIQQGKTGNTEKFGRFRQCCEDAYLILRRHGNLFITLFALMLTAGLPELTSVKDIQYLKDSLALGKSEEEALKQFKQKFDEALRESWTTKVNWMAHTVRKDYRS
Method in brief: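 Reported Kd (nM) reflects inhibitor binding to the kinase, as measured by KINOMEscan technology.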

[1] = test system: Akt phosphorylated at Ser473 in PC-3 cells; assay: Cellular assay: phosphorylation of Akt at Ser473 in PC-3 cells (MSD ELISA); assay type: cell-based; details: PC-3 cells, 60 min compound incubation, MSD ELISA, read-out: IC50 pAkt_S473
Method in brief: (§1)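 After lysis of treated cells (60 min, 37° C, 0.3% DMSO), phospho-Akt levels were measured by MSD electrochemiluminescence ELISA. Potency was derived from concentration-response curves fitted over five concentrations.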

[2] = test system: Akt phosphorylated at Thr308 in PC-3 cells; assay: Cellular assay: phosphorylation of Akt at Thr308 in PC-3 cells (MSD ELISA); assay type: cell-based; details: PC-3 cells, 60 min compound incubation, MSD ELISA, read-out: IC50 pAkt_Thr308
Method in brief: as §1

kinase enzymes [3] = biological target: T2, kinase enzymes (Homo sapiens, UniProt P48736); assay: Enzyme binding assay (KINOMEscan, DiscoveRx), further kinases of Table A; details: PIK3Cγ_h
T2 construct: purchased DiscoveRx Corporation, San Diego (contract service, KINOMEscan)
T2 sequence (P48736 whole entry): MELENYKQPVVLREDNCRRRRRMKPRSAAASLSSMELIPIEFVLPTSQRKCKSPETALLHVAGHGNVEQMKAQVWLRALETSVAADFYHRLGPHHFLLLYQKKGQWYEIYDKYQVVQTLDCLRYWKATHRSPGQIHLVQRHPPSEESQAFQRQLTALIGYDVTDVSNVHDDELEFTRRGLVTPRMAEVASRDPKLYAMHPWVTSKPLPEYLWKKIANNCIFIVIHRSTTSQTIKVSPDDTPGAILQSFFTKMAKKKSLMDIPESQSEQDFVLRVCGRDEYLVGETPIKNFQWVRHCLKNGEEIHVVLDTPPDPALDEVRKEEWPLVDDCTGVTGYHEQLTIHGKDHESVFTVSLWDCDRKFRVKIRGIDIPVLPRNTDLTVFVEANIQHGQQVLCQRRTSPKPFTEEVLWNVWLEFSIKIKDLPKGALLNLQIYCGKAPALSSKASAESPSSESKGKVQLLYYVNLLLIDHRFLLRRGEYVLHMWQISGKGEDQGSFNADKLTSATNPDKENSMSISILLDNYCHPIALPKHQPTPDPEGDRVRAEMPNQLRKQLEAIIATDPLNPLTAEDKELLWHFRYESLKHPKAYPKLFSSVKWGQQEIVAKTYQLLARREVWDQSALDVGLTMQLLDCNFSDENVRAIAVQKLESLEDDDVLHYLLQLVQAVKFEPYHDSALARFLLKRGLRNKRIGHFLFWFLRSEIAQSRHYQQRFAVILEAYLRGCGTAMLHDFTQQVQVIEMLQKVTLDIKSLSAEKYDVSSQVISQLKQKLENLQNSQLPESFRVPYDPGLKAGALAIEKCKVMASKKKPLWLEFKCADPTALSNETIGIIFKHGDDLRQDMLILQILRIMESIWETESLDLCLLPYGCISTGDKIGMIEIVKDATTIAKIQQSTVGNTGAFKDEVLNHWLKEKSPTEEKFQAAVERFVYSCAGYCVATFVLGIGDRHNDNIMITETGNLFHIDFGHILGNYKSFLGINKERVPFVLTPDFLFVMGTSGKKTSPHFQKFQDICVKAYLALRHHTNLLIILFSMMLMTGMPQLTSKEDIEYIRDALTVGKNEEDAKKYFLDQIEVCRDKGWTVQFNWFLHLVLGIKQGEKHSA
Method in brief: (§2)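 Kinase binding measured via KINOMEscan, reported as affinity.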

kinase enzymes [4] = biological target: T3, kinase enzymes (Homo sapiens, UniProt P42336); assay: as above; details: PIK3Cα_h
T3 construct: purchased DiscoveRx Corporation, San Diego (contract service, KINOMEscan)
T3 sequence (P42336 whole entry): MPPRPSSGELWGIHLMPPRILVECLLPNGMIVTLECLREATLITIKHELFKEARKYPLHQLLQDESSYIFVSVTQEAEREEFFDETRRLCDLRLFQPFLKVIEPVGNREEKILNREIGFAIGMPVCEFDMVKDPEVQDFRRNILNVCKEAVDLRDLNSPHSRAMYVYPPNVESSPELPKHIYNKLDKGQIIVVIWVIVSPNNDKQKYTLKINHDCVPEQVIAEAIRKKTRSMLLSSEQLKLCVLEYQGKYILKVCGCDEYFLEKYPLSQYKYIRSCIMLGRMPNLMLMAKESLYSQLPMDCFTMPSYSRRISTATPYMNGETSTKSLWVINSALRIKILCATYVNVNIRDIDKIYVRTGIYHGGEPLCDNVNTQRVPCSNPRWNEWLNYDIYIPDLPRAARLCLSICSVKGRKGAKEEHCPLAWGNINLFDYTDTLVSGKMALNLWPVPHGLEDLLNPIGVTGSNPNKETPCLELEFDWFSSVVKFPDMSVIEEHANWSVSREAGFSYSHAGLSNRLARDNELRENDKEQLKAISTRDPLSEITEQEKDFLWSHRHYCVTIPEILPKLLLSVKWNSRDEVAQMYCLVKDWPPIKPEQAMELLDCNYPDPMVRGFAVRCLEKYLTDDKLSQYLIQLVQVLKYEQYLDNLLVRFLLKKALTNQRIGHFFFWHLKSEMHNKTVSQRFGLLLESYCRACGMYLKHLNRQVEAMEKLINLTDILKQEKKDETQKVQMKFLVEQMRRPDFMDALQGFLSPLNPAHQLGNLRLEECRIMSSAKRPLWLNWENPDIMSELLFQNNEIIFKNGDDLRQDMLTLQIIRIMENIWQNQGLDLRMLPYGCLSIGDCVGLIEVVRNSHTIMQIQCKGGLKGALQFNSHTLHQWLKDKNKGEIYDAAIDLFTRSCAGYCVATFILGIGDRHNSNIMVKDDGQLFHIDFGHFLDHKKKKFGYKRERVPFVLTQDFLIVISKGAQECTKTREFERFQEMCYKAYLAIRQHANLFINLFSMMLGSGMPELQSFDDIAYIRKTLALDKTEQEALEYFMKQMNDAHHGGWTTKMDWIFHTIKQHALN
Method in brief: as §2

kinase enzymes [5] = biological target: T4, kinase enzymes (Homo sapiens, UniProt P42345); assay: as above; details: MTOR_h
T4 construct: purchased DiscoveRx Corporation, San Diego (contract service, KINOMEscan)
Method in brief: as §2

PI3Kδ = biological target: T5, PI3Kδ (Homo sapiens, UniProt O00329); assay: Enzyme binding assay (KINOMEscan, DiscoveRx); details: PIK3Cδ_h
T5 construct: purchased DiscoveRx Corporation, San Diego (contract service, KINOMEscan)
T5 sequence (O00329 1-1044): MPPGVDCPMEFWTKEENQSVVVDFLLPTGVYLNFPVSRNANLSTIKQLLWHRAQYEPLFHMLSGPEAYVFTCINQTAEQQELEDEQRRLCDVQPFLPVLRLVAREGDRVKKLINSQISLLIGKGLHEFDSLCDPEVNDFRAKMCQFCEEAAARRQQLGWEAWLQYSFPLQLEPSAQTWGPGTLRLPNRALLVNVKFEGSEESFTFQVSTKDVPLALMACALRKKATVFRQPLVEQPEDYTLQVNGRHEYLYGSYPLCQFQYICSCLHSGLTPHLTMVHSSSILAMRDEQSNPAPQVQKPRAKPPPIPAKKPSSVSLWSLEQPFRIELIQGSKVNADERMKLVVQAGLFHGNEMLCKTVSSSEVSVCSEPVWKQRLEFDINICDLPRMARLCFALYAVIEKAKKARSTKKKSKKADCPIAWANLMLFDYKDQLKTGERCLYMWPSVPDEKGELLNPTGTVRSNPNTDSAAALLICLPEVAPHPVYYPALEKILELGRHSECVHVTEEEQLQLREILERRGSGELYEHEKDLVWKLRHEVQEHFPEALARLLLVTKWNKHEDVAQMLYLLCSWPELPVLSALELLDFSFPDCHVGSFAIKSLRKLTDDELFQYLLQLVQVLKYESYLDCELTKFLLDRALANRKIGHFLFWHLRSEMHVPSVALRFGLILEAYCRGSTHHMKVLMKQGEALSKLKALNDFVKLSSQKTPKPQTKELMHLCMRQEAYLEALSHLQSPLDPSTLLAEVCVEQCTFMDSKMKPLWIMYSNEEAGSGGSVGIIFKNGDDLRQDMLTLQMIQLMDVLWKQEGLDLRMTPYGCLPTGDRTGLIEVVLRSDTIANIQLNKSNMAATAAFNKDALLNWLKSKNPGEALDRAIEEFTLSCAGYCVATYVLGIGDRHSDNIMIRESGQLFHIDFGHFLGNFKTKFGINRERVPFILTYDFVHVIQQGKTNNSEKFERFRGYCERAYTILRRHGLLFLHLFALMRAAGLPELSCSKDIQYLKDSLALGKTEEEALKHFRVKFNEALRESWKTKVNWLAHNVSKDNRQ
Method in brief: as §2

Row | Kd (PI3Kβ) | IC50 ([1]; Homo sapiens, PC-3, 1 h) | melting point | IC50 ([2]; Homo sapiens, PC-3, 1 h) | Kd (kinase enzymes [3]) | Kd (kinase enzymes [4]) | Kd (kinase enzymes [5]) | Kd (PI3Kδ) | IC50 [1] | IC50 [2] | SMILES
1 | 1 nM | 6 nM | 80 °C | 2 nM | 200 nM | 38 nM | 10700 nM | 17 nM | – | – | O=C(c1cc(C2CCCN2c2cc(F)cc(F)c2)c2nc(N3CCOCC3)cnc2c1)N1CC(O)C1 (centres unmarked) [Compound 65]
2 | 0.3 nM | – | 102 °C | – | 4070 nM | 1510 nM | 23400 nM | 72 nM | 5 nM | 3 nM | CC(Nc1ccc(F)c(F)c1)c1cc(C(=O)NCCN(C)C)cc2ncc(N3CCOCC3)nc12 (single isomer, unassigned) [Compound 281a]
3 | 1 nM | 5 nM | 120 °C | 6 nM | 955 nM | 339 nM | 14500 nM | 219 nM | – | – | O=Cc1cc(C2CCCN2c2cc(F)cc(F)c2)c2nc(N3CCOCC3)cnc2c1 (centres unmarked) [Compound 250]
4 | 5 nM | 145 nM | 77 °C | 115 nM | 6460 nM | 5370 nM | 19100 nM | 372 nM | – | – | CC(Nc1ccc(F)c(F)c1)c1cc(C(=O)NCCO)cc2ncc(N3CCOCC3)nc12 (centres unmarked) [Compound 279]
5 | 8 nM | 219 nM | 110 °C | 157 nM | 12300 nM | 5010 nM | > 30200 nM | 2210 nM | – | – | CC(Nc1cc(F)cc(F)c1)c1cc(C(=O)NC2CN(CC(F)(F)F)C2)cc2ncc(N3CCOCC3)nc12 (centres unmarked) [Compound 238]
6 | 107 nM | – | 130 °C | – | 11500 nM | 10200 nM | 17000 nM | 5130 nM | > 513 nM | 380 nM | CNCCNC(=O)c1cc([C@H](C)Oc2cccc(F)c2)c2nc(N3CCOCC3)cnc2c1 [Compound 123a]
7 | 68 nM | > 513 nM | 140 °C | 309 nM | 11700 nM | 4900 nM | 28800 nM | 5490 nM | – | – | CC(Oc1cc(F)cc(F)c1)c1cc(C(=O)NCCO)cc2ncc(N3CCOCC3)nc12 (single isomer, unassigned) [Compound 199]
8 | 2 nM | 251 nM | 80 °C | 138 nM | 2340 nM | 2950 nM | > 30200 nM | 398 nM | – | – | CC(Nc1cc(F)cc(F)c1)c1cc(C(=O)NCCOCCN)cc2ncc(N3CCOCC3)nc12 (centres unmarked) [Compound 149]
9 | 0.4 nM | 21 nM | 80 °C | 14 nM | 398 nM | 263 nM | > 30200 nM | 40 nM | – | – | CN(CCO)Cc1cc(C2CCCN2c2cc(F)cc(F)c2)c2nc(N3CCOCC3)cnc2c1 (centres unmarked) [Compound 101]
10 | 10 nM | 339 nM | 80 °C | 182 nM | 27500 nM | 6310 nM | > 30200 nM | 1780 nM | – | – | CC(Nc1cc(F)cc(F)c1)c1cc(C2=NC(C)(C)CO2)cc2ncc(N3CCOCC3)nc12 (centres unmarked) [Compound 186]
11 | 1 nM | 7 nM | 80 °C | 4 nM | 309 nM | 56 nM | 17400 nM | 35 nM | – | – | CNC(=O)c1cc(C2CCCN2c2cc(F)cc(F)c2)c2nc(N3CCOCC3)cnc2c1 (single isomer, unassigned) [Compound 40]
12 | 0.1 nM | – | 80 °C | 12 nM | 178 nM | 79 nM | 21400 nM | 29 nM | 8 nM | – | OC(CN1CCC1)c1cc(C2CCCN2c2cc(F)cc(F)c2)c2nc(N3CCOCC3)cnc2c1 (single isomer, unassigned) [Compound 94]
13 | 631 nM | – | 102 °C | – | 32400 nM | 3980 nM | 18600 nM | 3550 nM | > 513 nM | > 513 nM | CN(C)C(=O)c1cc(N2CCCC2c2cc(F)cc(F)c2)c2nc(N3CCOCC3)cnc2c1 (single isomer, unassigned) [Compound 395b]
14 | 0.3 nM | 15 nM | 80 °C | 15 nM | 3550 nM | 3160 nM | > 30200 nM | 91 nM | – | – | CC(Nc1ccc(F)c(F)c1)c1cc(C(=O)NCCN(C)C)cc2ncc(N3CCOCC3)nc12 (centres unmarked) [Compound 281]
15 | 214 nM | > 513 nM | 146 °C | > 513 nM | > 30200 nM | 19100 nM | > 30200 nM | > 30200 nM | – | – | COC(=O)c1cc(C(C)N(C)c2cccc(F)c2)c2nc(N3CCOCC3)cnc2c1 (centres unmarked) [Compound 97]
16 | 3 nM | 117 nM | 80 °C | ~32 nM | 3090 nM | 891 nM | > 30200 nM | 195 nM | – | – | CC(C)N1CCN(C(=O)c2cc(C3CCCN3c3cc(F)cc(F)c3)c3nc(N4CCOCC4)cnc3c2)CC1 (centres unmarked) [Compound 69]
17 | 1 nM | ~5 nM | 80 °C | 2 nM | 126 nM | 93 nM | 17000 nM | 16 nM | – | – | CC(O)c1cc(C2CCCN2c2cc(F)cc(F)c2)c2nc(N3CCOCC3)cnc2c1 (centres unmarked) [Compound 16]
18 | 38 nM | > 513 nM | 80 °C | 240 nM | 13800 nM | 6170 nM | > 30200 nM | 4900 nM | – | – | CN(C)C(=O)c1cc(C2CCCN2c2cccc(C(F)(F)F)c2)c2nc(N3CCOCC3)cnc2c1 (centres unmarked) [Compound 52]
19 | 1 nM | – | 100 °C | – | 372 nM | 302 nM | 18600 nM | 245 nM | 36 nM | 30 nM | Fc1cc(F)cc(N2CCCC2c2cncc3ncc(N4CCOCC4)nc23)c1 (single isomer, unassigned) [Compound 24]
20 | 5 nM | 49 nM | 80 °C | 43 nM | 13800 nM | 7410 nM | > 30200 nM | 813 nM | – | – | CC(C)NCCNC(=O)c1cc(C(C)Nc2ccc(F)c(F)c2)c2nc(N3CCOCC3)cnc2c1 (centres unmarked) [Compound 364]
21 | 1 nM | – | 80 °C | – | 2290 nM | 851 nM | 16200 nM | 182 nM | 22 nM | 15 nM | CC(Nc1cc(F)cc(F)c1)c1cc(C(=O)NCCO)cc2ncc(N3CCOCC3)nc12 (single isomer, unassigned) [Compound 188]

Row | SMILES | Kd (PI3Kβ) | IC50 ([1]; Homo sapiens, PC-3, 1 h) | melting point | IC50 ([2]; Homo sapiens, PC-3, 1 h) | Kd (kinase enzymes [3]) | Kd (kinase enzymes [4]) | Kd (kinase enzymes [5]) | Kd (PI3Kδ) | IC50 [1] | IC50 [2]
22 | CC(Oc1cccc(F)c1)c1cc(C(=O)N(C)C)cc2ncc(N3CCOCC3)nc12 (centres unmarked) [Compound 68] | 3 nM | 257 nM | 49 °C | 148 nM | 15100 nM | 3160 nM | 22400 nM | 589 nM | – | –
